Data on 1 compound can be found in patent US11555031B2, “Compounds and methods for regulating insulin secretion” (The Broad Institute, Inc., priority 2017, dated 2023).

Entries after “also recorded” stand apart in the source; their conditions may differ.

One series relates to C57B6/J mice. As to the kind of experiment: In vivo efficacy, glucose tolerance test. More on the design: species or system mouse. Particulars: 2 mg/kg tail vein injection, compared to control (vehicle). On the procedure:
Three-month-old male C57B6/J mice of body weight ranging from 20 to 25 g were housed in plastic polycarbonate cages. The animals were maintained at 25° C. with a 12-hour dark, 12-hour light schedule with food and water available ad libitum.
After two weeks of adaptation, the animals were randomly divided into two treatment groups (vehicle and Compound 8 in vehicle) with 5 mice per group. Mice were fasted for 16 hours (overnight) and basal blood glucose level was measured by tail vein nick using the AlphaTRAK 2 glucometer. Animals were given Compound 8 (2 mg/kg body weight) in vehicle or vehicle alone (7.5% NMP, 7.5% Solutol HS-15, 85% normal saline) by tail vein injection. Glucose tolerance tests (GTT) were performed 10 minutes after injection. Animals were given glucose at a dose of 1 g/kg body weight by intraperitoneal injection. Blood glucose was measured using the glucometer immediately before glucose injection, and at 15, 30, 60, and 120 minutes after injection (FIGS. 19A and 19C). At the 0, 15, and 30 minute time points, blood samples for insulin measurements were collected into EDTA-coated tubes and centrifuged at 9000 rpm to separate plasma, which was then stored at −80° C. until analysis. Insulin levels in plasma were analyzed using the ultra-sensitive mouse insulin ELISA kit (Crystal Chem) (FIGS. 19B and 19D). […]

The next series in a line: Plasma stability, human. The series is classed as in vitro ADME. How it is done: Measurements were performed on human, mouse (CD-1) and rat (SD) microsomes to determine the t1/2, the plasma protein binding (“PPB”) and the plasma stability (“PS”).
The nature of another series: Microsome t1/2, rat. The series is classed as in vitro ADME. Particulars: Rat (SD) microsomes. How it is done: The pharmacokinetic activity profile of Compound 8 was assessed by various standard in vitro measurements. Measurements were performed on human, mouse (CD-1) and rat (SD) microsomes to determine the t1/2, the plasma protein binding (“PPB”) and the plasma stability (“PS”).

A further series deals with INS-1E cells. Nature of the series: Luciferase Insulin Secretion Assay (proinsulin-Gaussia luciferase reporter). The series is classed as cell-based, rat. Conditions: INS-1E cells; 2.8 mM vs 16.7 mM glucose. An excerpt: A high-throughput luminescent insulin secretion assay was developed and performed to identify compounds that amplified insulin secretion only in the presence of a permissive glucose environment (FIG. 3). The assay used in compound screening is described in International Patent Publication No. WO2013070796A3, PCT/US2012/063982, and in Burns et al., High-Throughput Luminescent Reporter of Insulin Secretion for Discovering Regulators of Pancreatic Beta-Cell Function. Cell Metab. 2015 Jan. 6; 21(1):126-37.
The assay is a luminescent insulin secretion assay created by inserting Gaussia luciferase within the C-peptide portion of the insulin prohormone. Gaussia luciferase was chosen because of its small size and bright luciferase signal. To ensure full activity of the luciferase, a version was used that was codon-optimized for expression in mammalian cells. The enzyme was flanked with additional cleavage sites for prohormone convertase 2 (PC2), such that no extra amino acids should be present on the ends of the enzyme after processing within the vesicles (FIG. 4). Rat (INS-1E; Merglen et al., 2004) beta-cell lines stably expressing the reporter construct were generated. Assays using this cell type are referred to herein as Luciferase Insulin Secretion Assay.
A search for glucose-dependent insulin secretagogues was conducting by screening 384,216 compounds at a single concentration (10 μM) in duplicate using the Luciferase Insulin Secretion Assay, to identify those that increase insulin secretion only in the presence of high glucose (11.1 mM) (FIG. 6). These assays were performed in 1536 well format. A Z′ factor of 0.35 was obtained with respect the positive control (300 μM IBMX). The cutoff value selected was 45% activation, which was 3-4 standard deviations above background (solid uppermost line; FIG. 6).
For standard secretion assays, INS-1E cells were plated in 96-well format, preincubated for 1 hr in Krebs Ringer Buffer (KRB) with 2.8 mM glucose, and then stimulated for 1 hr in fresh KRB containing varying amounts of glucose and compounds. Insulin or C-peptide concentration was determined using an ELISA (Mercodia), following the manufacturer's protocol. Luciferase activity was determined from the same samples by adding the coelenterazine substrate to the supernatant to a final concentration of 10 μM and reading on a standard plate reader (BioTek).
INS-1E cells were expanded to 80% confluence in their growth medium, washed once in PBS, and preincubated for 1 hr at 37° C. in KRB with 2.8 mM glucose. Cells were then dissociated, spun at 300×g for 2 min, resuspended in fresh KRB without glucose, and filtered through 40 μm mesh (Becton Dickinson). Next, the cells were counted and diluted in KRB to 1×10^6 cells per ml, and glucose was added as required for each experiment. Cells were then seeded in 384-well format, 3×10^4 cells in 30 μl per well, using a Multidrop Combi device (Thermo Scientific). Compounds were pinned into each well using a Vario robot (CyBio) to a final concentration of 30 μM, and the plates were then incubated for 2 hr at 37° C. For assays involving a transfer step, the plates were then centrifuged at 300×g for 2 min, and 20 μl of supernatant was transferred to a new 384-well plate. Coelenterazine substrate was then added to a final concentration of 10 μM, and luciferase activity was determined using a standard plate reader (BioTek).
A general note: A reporter such as luciferase makes a cellular process visible.

The test system of another series is alpha-TC-1-6. Nature of the series: Luminescent glucagon secretion assay in alpha-cell line. Format: cell-based. Particulars: compared with DMSO negative control. How it is done:
FIG. 10 depicts the quantification of α-cell secretory activity in cells treated with DMSO, KCl, or Compound 8, using a luminescent assay for glucagon secretion.
To investigate the cell-type specificity of the compound, and to exclude the possibility that Compound 8 acts as a generic secretagogue, the compound was tested on secretion from a rodent alpha-cell line, “alpha-TC-1-6,” using a luciferase reporter for glucagon secretion that mirrors the insulin secretion assay (FIG. 10).

In general, half-life refers to the time needed for the level to fall by half in the phase considered. On to `Cc1cccc(NC(=O)c2ccc(OCc3c(C)noc3C)cc2)c1C` [Compound 8], for which the “glucose concentration area under the curve (AUC)” value with C57B6/J mice (GTT 1 g/kg glucose i.p.) is recorded as “decreased”. In addition, the insulinogenic index result with C57B6/J mice (GTT) is listed as “increase”. Besides, the PS in “Plasma stability, human” was found to be 106.2 % remaining. In addition, the half-life in the series “Microsome t1/2, rat” amounted to 3.62 h. Also, the “glucose-dependent (glucose-stimulated) insulin secretion, luciferase reporter” value with INS-1E cells is reported as “significant increase in glucose-dependent insulin secretion; also recorded: dose-dependent effect; also recorded: more effective than even the positive control, forskolin”. Moreover, in the series on alpha-TC-1-6, the “alpha-cell secretory activity (luciferase reporter for glucagon secretion)” value is listed as “not to augment luciferase secretion; also recorded: insignificant change from DMSO negative control”.
